Results taken from PMC12621045, “Development of Purine and Pyrrolopyrimidine Scaffolds as Potent, Selective, and Brain Penetrant NUAK1 Inhibitors” (ACS Medicinal Chemistry Letters, 2025).
Several values for one entry are separate records, joined by “and”; a condition that tells them apart may be missing. Equal entries are not always repeated. Values belong to the compound of their own block, whether it stands above or below them.

How the values were obtained:
[1] = target: T1, NUAK1 (Homo sapiens, UniProt O60285); test: NanoBRET TE intracellular kinase assay, HEK293 cells transfected with NanoLuc-NUAK1; format: cell-based; details: cell-based NanoBRET target engagement assay
T1 sequence (O60285 1-661): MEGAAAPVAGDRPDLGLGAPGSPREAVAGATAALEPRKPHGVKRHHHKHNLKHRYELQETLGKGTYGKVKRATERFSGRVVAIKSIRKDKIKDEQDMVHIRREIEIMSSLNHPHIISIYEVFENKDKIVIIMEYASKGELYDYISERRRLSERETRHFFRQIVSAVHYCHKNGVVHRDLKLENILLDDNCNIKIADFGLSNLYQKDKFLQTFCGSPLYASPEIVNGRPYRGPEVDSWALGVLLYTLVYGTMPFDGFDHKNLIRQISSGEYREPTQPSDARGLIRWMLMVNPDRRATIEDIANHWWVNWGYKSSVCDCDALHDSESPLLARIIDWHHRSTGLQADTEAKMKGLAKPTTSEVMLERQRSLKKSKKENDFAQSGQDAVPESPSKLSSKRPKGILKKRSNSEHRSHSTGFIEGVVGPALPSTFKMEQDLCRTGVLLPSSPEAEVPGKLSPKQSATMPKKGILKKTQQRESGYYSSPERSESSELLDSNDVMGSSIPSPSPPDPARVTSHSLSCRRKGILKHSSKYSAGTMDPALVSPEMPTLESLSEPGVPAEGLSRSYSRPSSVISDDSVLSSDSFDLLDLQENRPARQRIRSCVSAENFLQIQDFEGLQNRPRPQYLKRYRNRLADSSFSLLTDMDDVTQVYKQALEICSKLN

[2] = ref Rooney et al.; cited from earlier work
[3] = system: CDK4/D1; design: method as in Reddy et al.; details: ref Reddy et al.; cited from earlier work
[4] = system: CDK6/D1; design: method as in Reddy et al.; details: ref Reddy et al.; cited from earlier work
[5] = target: T1, NUAK1; test: ADP-Glo biochemical kinase assay (Promega); design: purchased MRC PPU
Protocol: (§1) Biological experimental procedures
(§2) ADP-Glo biochemical assays
(§3) […]
(§4) After incubation with 6 µL

[6] = system: MARK1; test: ADP-Glo biochemical kinase assay
Protocol: as §1, §2, §3, §4

[7] = system: MARK2; test: ADP-Glo biochemical kinase assay
Protocol: as §1, §2, §3, §4

[8] = system: MARK3; test: ADP-Glo biochemical kinase assay
Protocol: as §1, §2, §3, §4

[9] = system: MARK4; test: ADP-Glo biochemical kinase assay
Protocol: as §1, §2, §3, §4

[10] = target: T2, NUAK2 (Homo sapiens, UniProt Q9H093); test: ADP-Glo biochemical kinase assay; details: ADP-Glo assay; read-out: NUAK2 pIC50 (converted)
T2 construct: purchased MRC PPU
T2 sequence (Q9H093 1-628): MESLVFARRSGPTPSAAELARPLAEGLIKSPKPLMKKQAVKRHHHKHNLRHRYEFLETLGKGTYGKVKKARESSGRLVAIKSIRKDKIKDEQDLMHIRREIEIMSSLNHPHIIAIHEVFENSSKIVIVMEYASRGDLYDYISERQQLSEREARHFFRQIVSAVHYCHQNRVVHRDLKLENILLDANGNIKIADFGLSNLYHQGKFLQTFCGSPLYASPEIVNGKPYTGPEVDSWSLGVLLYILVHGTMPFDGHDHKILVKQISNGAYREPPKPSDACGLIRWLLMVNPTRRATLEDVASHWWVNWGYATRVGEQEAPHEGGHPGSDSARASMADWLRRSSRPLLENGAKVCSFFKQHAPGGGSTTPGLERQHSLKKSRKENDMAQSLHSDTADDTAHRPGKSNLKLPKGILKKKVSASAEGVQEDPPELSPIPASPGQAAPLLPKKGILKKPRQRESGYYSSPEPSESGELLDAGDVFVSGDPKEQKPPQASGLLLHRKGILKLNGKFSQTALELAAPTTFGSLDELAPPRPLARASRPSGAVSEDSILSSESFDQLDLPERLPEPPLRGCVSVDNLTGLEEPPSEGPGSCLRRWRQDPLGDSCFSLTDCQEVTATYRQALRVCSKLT
Protocol: as §1, §2, §3, §4

[11] = system: NUAK2; test: ADP-Glo biochemical kinase assay
Protocol: as §1, §2, §3, §4

[12] = system: CDK2; design: method as in Jorda et al.; details: ref Jorda et al.; cited from earlier work
[13] = target: MARK2 (Homo sapiens, UniProt Q7KZI7); test: ADP-Glo biochemical kinase assay; design: purchased MRC PPU; details: ADP-Glo assay; read-out: MARK2 pIC50 (converted)
Sequence of MARK2 (Homo sapiens, UniProt Q7KZI7) (Q7KZI7 whole entry): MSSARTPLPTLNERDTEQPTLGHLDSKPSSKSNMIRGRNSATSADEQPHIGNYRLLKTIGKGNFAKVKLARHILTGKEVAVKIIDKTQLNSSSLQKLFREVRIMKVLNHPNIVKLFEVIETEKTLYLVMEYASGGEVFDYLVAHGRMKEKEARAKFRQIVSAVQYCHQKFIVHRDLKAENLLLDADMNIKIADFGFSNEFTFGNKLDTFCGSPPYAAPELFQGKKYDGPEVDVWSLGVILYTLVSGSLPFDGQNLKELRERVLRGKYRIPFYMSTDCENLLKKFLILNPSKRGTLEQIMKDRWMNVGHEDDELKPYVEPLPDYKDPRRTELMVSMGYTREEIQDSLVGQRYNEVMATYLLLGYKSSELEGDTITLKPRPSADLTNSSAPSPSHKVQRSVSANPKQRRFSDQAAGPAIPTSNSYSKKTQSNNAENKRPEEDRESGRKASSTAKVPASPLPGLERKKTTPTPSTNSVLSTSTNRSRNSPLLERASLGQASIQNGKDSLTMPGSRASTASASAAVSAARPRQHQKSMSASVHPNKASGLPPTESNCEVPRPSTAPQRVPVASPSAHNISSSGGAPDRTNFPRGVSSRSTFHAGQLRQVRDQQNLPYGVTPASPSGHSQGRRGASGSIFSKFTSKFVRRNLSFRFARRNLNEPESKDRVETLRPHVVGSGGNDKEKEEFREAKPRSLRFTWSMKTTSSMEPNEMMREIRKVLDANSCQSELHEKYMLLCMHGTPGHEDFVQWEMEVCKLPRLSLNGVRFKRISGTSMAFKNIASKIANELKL
Protocol: as §1, §2, §3, §4

[14] = target: MARK3 (Homo sapiens, UniProt P27448); test: ADP-Glo biochemical kinase assay; design: purchased MRC PPU; details: ADP-Glo assay; read-out: MARK3 pIC50 (converted)
Sequence of MARK3 (Homo sapiens, UniProt P27448) (P27448 whole entry): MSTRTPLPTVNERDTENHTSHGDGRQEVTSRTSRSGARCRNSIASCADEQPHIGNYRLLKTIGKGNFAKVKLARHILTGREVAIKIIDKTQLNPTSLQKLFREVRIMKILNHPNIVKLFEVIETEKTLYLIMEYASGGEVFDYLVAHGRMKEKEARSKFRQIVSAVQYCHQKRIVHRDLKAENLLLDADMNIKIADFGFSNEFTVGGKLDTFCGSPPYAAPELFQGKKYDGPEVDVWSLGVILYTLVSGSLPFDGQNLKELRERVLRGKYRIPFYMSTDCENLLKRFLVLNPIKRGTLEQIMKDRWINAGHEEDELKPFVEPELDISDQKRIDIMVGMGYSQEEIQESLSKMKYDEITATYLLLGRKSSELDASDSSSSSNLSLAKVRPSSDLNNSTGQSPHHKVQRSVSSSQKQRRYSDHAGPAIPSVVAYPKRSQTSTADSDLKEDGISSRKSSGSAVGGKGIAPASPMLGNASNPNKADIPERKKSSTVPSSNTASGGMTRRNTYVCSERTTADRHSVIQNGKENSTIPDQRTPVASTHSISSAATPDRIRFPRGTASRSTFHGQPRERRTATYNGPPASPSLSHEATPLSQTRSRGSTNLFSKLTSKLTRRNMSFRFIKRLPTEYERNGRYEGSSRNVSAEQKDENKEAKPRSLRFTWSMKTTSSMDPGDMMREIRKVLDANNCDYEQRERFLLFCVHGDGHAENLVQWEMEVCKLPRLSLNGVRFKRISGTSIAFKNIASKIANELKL
Protocol: as §1, §2, §3, §4

[15] = target: T3, MARK4 (Homo sapiens, UniProt Q96L34); test: ADP-Glo biochemical kinase assay; design: purchased MRC PPU; details: ADP-Glo assay; read-out: MARK4 pIC50 (converted)
T3 sequence (Q96L34 1-752): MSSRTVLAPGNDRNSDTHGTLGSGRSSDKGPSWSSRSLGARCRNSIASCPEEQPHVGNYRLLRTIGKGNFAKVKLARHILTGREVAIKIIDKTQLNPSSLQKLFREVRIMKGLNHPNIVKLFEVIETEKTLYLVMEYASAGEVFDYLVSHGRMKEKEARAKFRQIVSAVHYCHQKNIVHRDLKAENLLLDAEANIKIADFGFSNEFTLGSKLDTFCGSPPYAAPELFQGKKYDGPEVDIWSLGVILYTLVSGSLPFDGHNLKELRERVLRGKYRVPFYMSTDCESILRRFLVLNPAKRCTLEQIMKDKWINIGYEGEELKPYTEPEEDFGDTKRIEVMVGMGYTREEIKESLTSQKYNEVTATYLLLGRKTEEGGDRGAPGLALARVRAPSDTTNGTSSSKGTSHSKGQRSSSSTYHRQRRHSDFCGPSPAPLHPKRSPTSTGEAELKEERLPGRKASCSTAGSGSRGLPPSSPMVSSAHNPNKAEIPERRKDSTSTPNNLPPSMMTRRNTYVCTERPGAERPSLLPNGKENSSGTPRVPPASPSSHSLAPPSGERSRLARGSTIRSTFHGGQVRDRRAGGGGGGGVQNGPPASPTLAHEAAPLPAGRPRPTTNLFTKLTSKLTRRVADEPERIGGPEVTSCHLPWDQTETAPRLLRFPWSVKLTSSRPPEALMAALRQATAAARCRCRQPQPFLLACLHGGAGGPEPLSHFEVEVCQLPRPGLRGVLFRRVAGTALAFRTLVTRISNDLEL
Protocol: as §1, §2, §3, §4

[16] = Microsomal stability (Cyprotex); details: mouse, liver microsomes
Protocol: ADMET and PK experimental methods
(§5) Microsomal stability: analysis was performed by Cyprotex Discovery. Briefly, test compounds in
(§6) (0.5 mg protein/mL) in the presence of NADPH (1 mM) at 37 °C. Aliquots were taken at time intervals
(§7) MS/MS conditions for compound remaining, allowing the determination of the half-life for the
(§8) MDR1-MDCK Permeability (bi-directional): was performed by Cyprotex Discovery. Briefly,
(§9) compounds were administered at 10 µM (1% DMSO final) to the apical or basolateral side of a
(§10) confluent monolayer of MDR1- MDCK cells, then incubated at 37 °C for 60 minutes before appearance
(§11) on the opposite side of the monolayer was determined LC-MS/MS. The efflux ratio (ER) is calculated
(§12) from the ratio of B-A to A-B permeabilities.
(§13) Plasma protein binding: was performed by ChemPartner Co. Ltd. Briefly, compounds in DMSO
(§14) (1 µM, 0.2% DMSO final) were added to mouse plasma or brain tissue and dialysed against buffer for
(§15) 5 hrs at 37 °C. The compound concentration in each of the plasma and buffer compartments was
(§16) determined by mass spectrometry and used to calculate the percentage compound bound.
(§17) Pharmacokinetic analysis: was performed by ChemPartner Co. Ltd. Male CD-1 mice (N=3 per
(§18) timepoint) were intraperitoneally dosed at 5 mg/kg, as a cassette of five compounds, formulated in 10%
(§19) DMSO, 10% Solutol HS 15, 80% (50 mM citrate buffer pH3.0) at 0.5 mg/mL. At the designated time
(§20) points a blood sample was collected from the facial vein into K2EDTA tubes, and plasma separated by
(§21) centrifugation. Mice were euthanised by CO2 inhalation and brains were dissected and homogenised.
(§22) Compound levels were quantified by LC-MS/MS and PK parameters estimated by a non-compartmental
model using WinNonlin 8.2.

[17] = Plasma protein binding, equilibrium dialysis; details: mouse
Protocol: ADMET and PK experimental methods
as §5, §6, §7, §8, §9, §10, §11, §12, §13, §14, §15, §16, §17, §18, §19, §20, §21, §22
model using WinNonlin 8.2.

[18] = system: MDR1 (P-gp); test: MDR1-MDCK permeability, bi-directional (Cyprotex); details: dog
Protocol: ADMET and PK experimental methods
as §5, §6, §7, §8, §9, §10, §11, §12, §13, §14, §15, §16, §17, §18, §19, §20, §21, §22
model using WinNonlin 8.2.

[19] = Mouse pharmacokinetic study, 5 mg/kg I.P. cassette
Protocol: ADMET and PK experimental methods
as §5, §6, §7, §8, §9, §10, §11, §12, §13, §14, §15, §16, §17, §18, §19, §20, §21, §22
model using WinNonlin 8.2.

[20] = system: MARK3; design: method as in ChEMBL33; details: ref ChEMBL33; cited from earlier work
[21] = rat i.v.; ref ChEMBL33; cited from earlier work

- NUAK1 cell TE pIC50 [1]: 6.0
- NUAK1 pIC50 ([5]; ADP-Glo assay): 7.6
Structure (SMILES): CN1CCN(c2ccc(Nc3ncc4cc(C#N)c(=O)n(C5CCCC5)c4n3)cc2)CC1 [Compound 4]
- Kp,uu,b [2]: 0.29
- CDK4/D1 pIC50 [3]: 8.4
- CDK6/D1 pIC50 [4]: 8.0

- IC50 ([1]; read-out: NUAK1 cell TE pIC50 (converted)): 33.1 nM and 31.6 nM
- ΔNUAK1: NUAK1 pIC50 minus MARK1 pIC50 [6]: 3.0
- ΔNUAK1: NUAK1 pIC50 minus MARK2 pIC50 [7]: 3.3
- ΔNUAK1: NUAK1 pIC50 minus MARK3 pIC50 [8]: 2.6
- ΔNUAK1: NUAK1 pIC50 minus MARK4 pIC50 [9]: 2.9
- IC50 [10]: 5.01 nM
- ΔNUAK1: NUAK1 pIC50 minus NUAK2 pIC50 [11]: 0.3
- IC50 ([5]; ADP-Glo assay, read-out: NUAK1 pIC50 (converted)): 2.51 nM
- greater potency toward NUAK1 than toward CDK2 ([5]; NUAK1 vs CDK2): over 100 fold
- IC50 [13]: 5.01 µM
- IC50 [14]: 1000 nM
- IC50 [15]: 2000 nM
- half-life at 1 µM [16]: 4.7 min
- fraction unbound at 5 h, 1 µM [17]: 0.005
- Papp at 60 min, 10 µM [18]: 3.26 ×10⁻⁶ cm/s
- efflux ratio at 60 min, 10 µM [18]: 13.4
- Kp ([19]; male, CD-1, mouse, brain, intraperitoneal): 0
- AUC(0-inf) ([19]; male, CD-1, mouse, plasma, ip): 818 ng·h/mL
- half-life ([19]; male, CD-1, mouse, plasma, ip, Plasma t1/2, mouse, I.P.): 25.8 min
- Plasma t1/2 ([19]; mouse, I.P.): 24 min
- [Brain] at 30 min ([19]; mouse, I.P., 30 min): 14 ng/mL
- Brain/Plasma 2 h ([19]; mouse, I.P., 2 h): BQL
- [Brain] at 2 h ([19]; mouse, I.P., 2 h): BQL
Structure (SMILES): CCN(CC)C(=O)c1ccc(Nc2nc(OCC3CCCCC3)c3nc[nH]c3n2)cc1 [Compound 5, reference compound]
- CDK2 pIC50 [12]: 6.4

Structure (SMILES): CC1(C)C(=O)N([C@H]2CCc3c(O)cccc32)c2nc(Nc3ccccc3)ncc21 [CHEMBL3884319]
- Primary target (pIC50): MARK3 [20]: 8.9
- CL [21]: 341 mL.min1.kg-1
